# Laboratory results published in patent US20020120098A1, “Enhanced stimulation of erythropoiesis” (priority 1996, published 2002).
# Tests used:
# erythroid colonies = test: Hemoglobin production by erythroid colonies, anion exchange HPLC; format: cell-based, human; conditions: 5% O2, 2 U/ml Epo; for adult Hb / fetal Hb / total Hb: 100 μM hemin, 1.0 mg/ml HAo or HEMOLINK, 250 μM FeCl3; for adult Hb per cell / fetal Hb per cell / total Hb per cell: estimated assuming 30,000 cells/BFU-E and 100 cells/CFU-E
# Method: Hemoglobin synthesis in erythroid colonies was analyzed by anion exchange high performance liquid chromatography (HPLC). Colonies were harvested from CFA plates and cell lysates were prepared after the progenitor colonies had been enumerated. Colonies were isolated from methyl cellulose by several washes in PBS. The cells were pelleted and lysed in 50 mM Tris, pH 8.8 and the cell debris removed by pelleting the cell lysate. The lysate supernatants were filtered through a 0.2 ,μm filter prior to loading onto a POROS® HQ/H anion exchange HPLC column (PerSeptive Biosystems). The hemoglobin was eluted with an increasing NaCl gradient and the optical density (O.D.) monitored at a wavelength of 414 nm The amount of hemoglobin present in the lysates was quantitated by comparison with standard hemoglobin solutions of adult (HbA) and fetal hemoglobin (HbF).
# Representative HPLC profiles for hemoglobin produced by erythroid colonies that formed at 5% O2 in the presence of 2 U/ml Epo with no addition (vehicle only), 100 μM hemin, 1.0 mg/ml HAo (15.6 μM) HAo, 1.0 mg/ml HEMOLINK™ (15.6 μM), or 250 μM FeCl3 are shown in FIG. 7.
# CFU-GM = test: Colony formation assay (CFA), cord blood LDMNC: CFU-GM colonies; format: cell-based, human; conditions: 2 U/ml Epo; for effect on CFU-GM numbers (in words): ambient O2; for CFU-GM progenitor number, fold increase: ambient O2, vs vehicle control
# Method: This technique, referred to as the colony formation assay (CFA), is the most widely used biological assay to identify and enumerate erythroid progenitors present in hematopoietic tissue such as blood and bone marrow. Cell populations containing erythroid progenitors are plated in semi-solid suspensions of methyl cellulose, agar, low melting agarose or related substances in nutrient culture medium containing 1-3 U/ml Epo and 10 ng/ml IL-3 to specifically stimulate erythroid progenitors. Plates are incubated at 37° C. for 14 days during which time the erythroid progenitors form characteristic hemoglobinized (red) colonies. Two distinct but related erythroid progenitors can be distinguished based on colony size and morphology: BFU-E, the most primitive recognizable erythroid progenitor forms large multilobular colonies whereas the more mature CFU-E forms smaller spherical colonies.
# Adult hemoglobin was purified according to U.S Pat. Nos. 5,439,591 and 5,545,328 to obtain HAo and HEMOLINK™ was prepared from HAo according to U.S. Pat. No. 5,532,352. Human umbilical cord blood intended for discard was collected from the umbilical vein of placentas immediately postpartum into 10 ml vacutainer tubes containing 143 USP units/ml sodium heparin. Low density mononuclear cells were separated from red blood cells by centrifugation over a 1.077 g/ml density gradient Cells removed from the plasma/density gradient interface were incubated overnight in a tissue culture flask with 10 ml cell culture medium containing 10% fetal bovine serum, and non-adherent LDMNC were further purified with an additional density gradient step. The LDMNC were then plated into colony formation assays (CFA) on the second day of isolation. In the CFA, LDMNC were plated at a density of 1×10^5 cells/ml in Iscoves modified Dulbeccos cell culture medium containing 0.8% methyl-cellulose, 30% fetal bovine serum, 1% bovine serum albumin, 0.1 mM 2-mercaptoethanol and 2 mM L-glutamine. Unless indicated otherwise, under standard CFA conditions 2 U/ml Epo and 10 ng/ml IL-3 are added to the formulation to stimulate hematopoietic progenitor growth, specifically BFU-E, CFU-E and CFU-GM.
# Each condition was tested in duplicate in from 2-18 independent experiments. Cultures were maintained in a humidified incubator at 37° C., 5% CO2 and ambient oxygen tensions. The number of hematopoietic progenitors was scored between days 13-15 by counting the number and types of colonies present.
# The effect of the various additives on the inhibitory effect of succinylacetone (SA), a heme synthesis inhibitor, on erythroid progenitors was determined. Primary LDMNC were cultured in methyl cellulose as described in Example 1. Cord blood LDMN were plated in the presence of 1.0 mg/ml HAo (15.6 μM; n=12) or HEMOLINK™ (15.6 μM; n=5), 100 μM hemin (n=12), 250 μM FeCl3 (n=11) or no addition (n=12), in absence or presence of 0.5 mM SA. Cultures were maintained in a humidified chamber at 37° C., 5% CO2, and ambient oxygen tensions for 14 days.
# HEMOLINK™ was evaluated for its ability to protect erythroid progenitor cells from toxicity due to ganciclovir. Cord blood LDMNC were set up in CFAs in the presence and absence of 1 mg/ml HEMOLINK™ plus 0, 0.1, 1.0, 10, 50 or 100 μM ganciclovir. Conditions for the CFA were similar to those described in Examples 1-4. […] All data are expressed relative to the number of colonies of control plates without HEMOLINK™. The hematopoietic progenitors display different sensitivities to ganciclovir. CFU-E were unaffected by 1 μM ganciclovir. However, a similar inhibition of BFU-E occurs at a 50-fold lower dose of ganciclovir (1 μM). […] Due to the difficulty in scoring CFU-GM in the presence of hemoglobin precipitates, as previously noted, they could not be accurately measured under these conditions. Thus, HEMOLINK™ reduces toxicity of ganciclovir to erythroid progenitors with the most pronounced effect on BFU-E cells.
# [1] = dose 1000 μg/ml, underestimated due to hemoglobin precipitates
Compound,adult Hb (erythroid colonies),fetal Hb (erythroid colonies),total Hb (erythroid colonies),adult Hb per cell (erythroid colonies),fetal Hb per cell (erythroid colonies),total Hb per cell (erythroid colonies),effect on CFU-GM numbers (in words) (CFU-GM),"CFU-GM progenitor number, fold increase (CFU-GM; dose 1.0 μM)","CFU-GM progenitor number, fold increase (CFU-GM; dose 10 μM)","CFU-GM progenitor number, fold increase (CFU-GM; dose 100 μM)","CFU-GM progenitor number, fold increase (CFU-GM; dose 250 μM)","CFU-GM progenitor number, fold increase (CFU-GM; [1])","CFU-GM progenitor number, fold increase (CFU-GM; dose 64 μM)","CFU-GM progenitor number, fold increase (CFU-GM; dose 10 μg/ml)","CFU-GM progenitor number, fold increase (CFU-GM; dose 100 μg/ml)","CFU-GM progenitor number, fold increase (CFU-GM; dose 500 μg/ml)"
[Cl][Fe]([Cl])[Cl] [FeCl3],5.0 µg,9.5 µg,14.5 µg,0.14 pg/cell,0.26 pg/cell,0.40 pg/cell,unaffected,1.2 fold,1.0 fold,0.8 fold,1.3 fold,–,–,–,–,–
HEMOLINK™: chemically crosslinked hemoglobin prepared by treating human hemoglobin with a polyaldehyde (O-raffinose),20.5 µg,28.0 µg,48.5 µg,0.38 pg/cell,0.51 pg/cell,0.89 pg/cell,–,–,–,–,–,*0.6 fold,–,–,–,–
C=CC1=C(C)C2=Cc3c(C=C)c(C)c4[n]3[Fe-2]35([Cl])[n]6c(c(C)c(CCC(=O)O)c6=CC6=[N+]3C(=C4)C(C)=C6CCC(=O)O)=CC1=[N+]25 [hemin],8.7 µg,19.4 µg,28.1 µg,0.14 pg/cell,0.32 pg/cell,0.46 pg/cell,unaffected,1.5 fold,1.4 fold,1.0 fold,1.4 fold,–,1.2 fold,–,–,–
HAo: adult human hemoglobin obtained from red blood cells and purified by displacement chromatography; uncross linked product,22.6 µg,33.1 µg,55.7 µg,0.37 pg/cell,0.54 pg/cell,0.91 pg/cell,does not stimulate CFU-GM,–,–,–,–,**0.5 fold,–,1.4 fold,1.5 fold,1.2 fold
